In the CheMixHub viscosity set:

Experiment: xn = mol fraction of the nth substance listed

CC(=O)O + Cc1cccc(C)c1
viscosity [mPa·s], 101.3 kPa
Conditions | x2 = 0.1087 | x2 = 0.218 | x2 = 0.2726 | x2 = 0.3467 | x2 = 0.4518 | x2 = 0.5763 | x2 = 0.6567 | x2 = 0.7671 | x2 = 0.8589
298.15 K | 0.952 | 0.809 | 0.753 | 0.7 | 0.648 | 0.618 | 0.603 | 0.591 | 0.579
303.15 K | 0.861 | 0.746 | 0.707 | 0.655 | 0.615 | 0.582 | 0.568 | 0.554 | 0.545
313.15 K | 0.777 | 0.665 | 0.624 | 0.58 | 0.543 | 0.519 | 0.507 | 0.501 | 0.494
323.15 K | 0.687 | 0.59 | 0.554 | 0.518 | 0.483 | 0.466 | 0.459 | 0.451 | 0.444

CC(=O)O + Cc1ccccc1
viscosity [mPa·s]
Conditions | 293.15 K | 303.15 K | 313.15 K | 323.15 K
101 kPa, x2 = 0.0642 | – | – | 0.9448 | 0.8122
101 kPa, x2 = 0.2052 | – | – | 0.6513 | 0.4846
101 kPa, x2 = 0.7929 | – | – | 0.4859 | 0.4171
101.33 kPa, x2 = 0.022 | 1.143 | 0.9772 | 0.8709 | 0.7709
101.33 kPa, x2 = 0.0569 | 1.06 | 0.907 | 0.8111 | 0.7288
101.33 kPa, x2 = 0.1191 | 0.9245 | 0.8216 | 0.731 | 0.641
101.33 kPa, x2 = 0.1879 | 0.8359 | 0.741 | 0.6554 | 0.59
101.33 kPa, x2 = 0.2626 | 0.7694 | 0.6753 | 0.603 | 0.5446
101.33 kPa, x2 = 0.352 | 0.7293 | 0.6216 | 0.561 | 0.5072
101.33 kPa, x2 = 0.4459 | 0.6757 | 0.5903 | 0.522 | 0.474
101.33 kPa, x2 = 0.4893 | 0.6542 | 0.5766 | 0.5131 | 0.4647
101.33 kPa, x2 = 0.5579 | 0.6349 | 0.5578 | 0.5022 | 0.4559
101.33 kPa, x2 = 0.6302 | 0.6233 | 0.5464 | 0.491 | 0.4486
101.33 kPa, x2 = 0.6817 | 0.6144 | 0.5382 | 0.4828 | 0.4384
101.33 kPa, x2 = 0.7391 | 0.6055 | 0.5304 | 0.4757 | 0.4319
101.33 kPa, x2 = 0.861 | 0.5941 | 0.5201 | 0.4619 | 0.42
101.33 kPa, x2 = 0.9262 | 0.588 | 0.513 | 0.4611 | 0.4194
101.33 kPa, x2 = 0.9645 | 0.5842 | 0.5088 | 0.4574 | 0.4163

ClCCl + Cc1ccccc1
101 kPa
Conditions | viscosity [mPa·s]
293.15 K, x1 = 0.1635 | 0.564
293.15 K, x1 = 0.3002 | 0.543
293.15 K, x1 = 0.4025 | 0.528
293.15 K, x1 = 0.4771 | 0.517
293.15 K, x1 = 0.5025 | 0.511
293.15 K, x1 = 0.5801 | 0.498
293.15 K, x1 = 0.5919 | 0.496
293.15 K, x1 = 0.675 | 0.479
293.15 K, x1 = 0.7431 | 0.468
293.15 K, x1 = 0.788 | 0.465
298.15 K, x1 = 0.2198 | 0.525
298.15 K, x1 = 0.3271 | 0.51
298.15 K, x1 = 0.4201 | 0.497
298.15 K, x1 = 0.5108 | 0.48
298.15 K, x1 = 0.5701 | 0.472
298.15 K, x1 = 0.6325 | 0.462
298.15 K, x1 = 0.6841 | 0.455
298.15 K, x1 = 0.7201 | 0.45
298.15 K, x1 = 0.7501 | 0.447
303.15 K, x1 = 0.218 | 0.497
303.15 K, x1 = 0.3331 | 0.481
303.15 K, x1 = 0.4402 | 0.467
303.15 K, x1 = 0.5223 | 0.45
303.15 K, x1 = 0.6191 | 0.436
303.15 K, x1 = 0.694 | 0.424
303.15 K, x1 = 0.7651 | 0.415
303.15 K, x1 = 0.8053 | 0.412

ClCCl + Cc1ccccc1C
101 kPa
Conditions | viscosity [mPa·s]
293.15 K, x1 = 0.3503 | 0.679
293.15 K, x1 = 0.4307 | 0.648
293.15 K, x1 = 0.4992 | 0.623
293.15 K, x1 = 0.5657 | 0.594
293.15 K, x1 = 0.6558 | 0.561
293.15 K, x1 = 0.7632 | 0.521
293.15 K, x1 = 0.8524 | 0.49
298.15 K, x1 = 0.2305 | 0.677
298.15 K, x1 = 0.3611 | 0.634
298.15 K, x1 = 0.449 | 0.602
298.15 K, x1 = 0.5343 | 0.572
298.15 K, x1 = 0.6293 | 0.542
298.15 K, x1 = 0.696 | 0.519
298.15 K, x1 = 0.7684 | 0.494
298.15 K, x1 = 0.826 | 0.476
298.15 K, x1 = 0.8658 | 0.465
303.15 K, x1 = 0.236 | 0.644
303.15 K, x1 = 0.3688 | 0.602
303.15 K, x1 = 0.4846 | 0.561
303.15 K, x1 = 0.5645 | 0.531
303.15 K, x1 = 0.6373 | 0.507
303.15 K, x1 = 0.7091 | 0.483
303.15 K, x1 = 0.7766 | 0.462
303.15 K, x1 = 0.8368 | 0.444
303.15 K, x1 = 0.861 | 0.437

C[Si]1(C)O[Si](C)(C)O[Si](C)(C)O[Si](C)(C)O1 + ClC(Cl)(Cl)Cl
101 kPa
Conditions | viscosity [mPa·s]
298.15 K, x1 = 0.1089 | 1.044
298.15 K, x1 = 0.1965 | 1.14
298.15 K, x1 = 0.289 | 1.245
298.15 K, x1 = 0.4288 | 1.407
298.15 K, x1 = 0.5841 | 1.595
298.15 K, x1 = 0.659 | 1.694
298.15 K, x1 = 0.8443 | 1.95
298.15 K, x1 = 0.9264 | 2.073
298.15 K, x1 = 0.9773 | 2.147
308.15 K, x1 = 0.1756 | 0.964
308.15 K, x1 = 0.3239 | 1.101
308.15 K, x1 = 0.5732 | 1.339
308.15 K, x1 = 0.729 | 1.493
308.15 K, x1 = 0.8636 | 1.646
308.15 K, x2 = 0.0183 | 1.786
318.15 K, x1 = 0.1779 | 0.844
318.15 K, x1 = 0.3249 | 0.956
318.15 K, x1 = 0.5816 | 1.148
318.15 K, x1 = 0.7307 | 1.27
318.15 K, x1 = 0.8652 | 1.388
318.15 K, x2 = 0.0179 | 1.498

ClCCl + ClC(Cl)(Cl)Cl
Conditions | viscosity [mPa·s]
303.15 K, 101.3 kPa, x2 = 0.506 | 0.5396

CC(=O)O + ClC(Cl)Cl
Conditions | viscosity [mPa·s]
298.15 K, 101.33 kPa, x2 = 0.0468 | 1.087
298.15 K, 101.33 kPa, x2 = 0.1013 | 0.997
298.15 K, 101.33 kPa, x2 = 0.1021 | 1.022
298.15 K, 101.33 kPa, x2 = 0.1487 | 0.954
298.15 K, 101.33 kPa, x2 = 0.203 | 0.925
298.15 K, 101.33 kPa, x2 = 0.2312 | 0.882
298.15 K, 101.33 kPa, x2 = 0.2997 | 0.837
298.15 K, 101.33 kPa, x2 = 0.3403 | 0.805
298.15 K, 101.33 kPa, x2 = 0.4207 | 0.759
298.15 K, 101.33 kPa, x2 = 0.4784 | 0.731
298.15 K, 101.33 kPa, x2 = 0.5017 | 0.717
298.15 K, 101.33 kPa, x2 = 0.5627 | 0.68
298.15 K, 101.33 kPa, x2 = 0.6215 | 0.657
298.15 K, 101.33 kPa, x2 = 0.7312 | 0.613
298.15 K, 101.33 kPa, x2 = 0.8031 | 0.589
298.15 K, 101.33 kPa, x2 = 0.8931 | 0.56
303.15 K, 101 kPa, x2 = 0.0819 | 0.8986
303.15 K, 101 kPa, x2 = 0.25 | 0.7244
303.15 K, 101 kPa, x2 = 0.7464 | 0.5285
313.15 K, 101 kPa, x2 = 0.0819 | 0.8287
313.15 K, 101 kPa, x2 = 0.25 | 0.6532
313.15 K, 101 kPa, x2 = 0.7464 | 0.484
323.15 K, 101 kPa, x2 = 0.0819 | 0.7516
323.15 K, 101 kPa, x2 = 0.25 | 0.5982
323.15 K, 101 kPa, x2 = 0.7464 | 0.4537

ClCCCl + ClC(Cl)Cl
303.15 K, 101.3 kPa
Conditions | viscosity [mPa·s]
x1 = 0.0711 | 0.524
x1 = 0.1645 | 0.5402
x1 = 0.216 | 0.5493
x1 = 0.3322 | 0.5723
x1 = 0.4444 | 0.5947
x1 = 0.5227 | 0.6115
x1 = 0.6269 | 0.6349
x1 = 0.7591 | 0.6659
x1 = 0.7901 | 0.6733
x1 = 0.8637 | 0.692
x1 = 0.935 | 0.7102
